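Each compound was tested at five concentrations against cells in 96-well plates for 48 hours. At the GI50, growth is halved.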 Activity calls are given as the source filed them. Cut-off read from the data, not from the text of the source: active = GI50 up to about 1.1 µM and inactive = higher.
Key:
Assay in all cases: inhibition of tumour cell growth, NCI panel, 48 h
[1] = system: MOLT-4
[2] = system: HOP-92
[3] = system: SW-620
[4] = system: M14
[5] = system: MDA-MB-231
[6] = system: RPMI-8226
[7] = system: UACC-257
[8] = system: HCT-116
[9] = system: SK-MEL-5
[10] = system: SF-268
[11] = system: T47D
[12] = system: HT-29
[13] = system: UO-31
[14] = system: MDA-MB-435
[15] = system: OVCAR-3
[16] = system: COLO 205
[17] = system: SK-MEL-28
[18] = system: SR
[19] = system: K562
[20] = system: Malme-3M

SMILES | GI50 [1] | GI50 [2] | GI50 [3] | GI50 [4] | GI50 [5] | GI50 [6] | GI50 [7] | GI50 [8] | GI50 [9] | GI50 [10] | GI50 [11] | GI50 [12] | GI50 [13] | GI50 [14] | GI50 [15] | GI50 [16] | GI50 [17] | GI50 [18] | GI50 [19] | GI50 [20]
COc1ccc(/C=C/c2cc(=O)cc(/C=C/c3ccc(OC)c(O)c3)o2)cc1O | 2.24 µM (inactive) | 3.39 µM (inactive) | 2.71 µM (inactive) | 2.31 µM (inactive) | 2.05 µM (inactive) | 0.317 µM (active) | 2.04 µM (inactive) | 2.43 µM (inactive) | 1.88 µM (inactive) | 3.02 µM (inactive) | 1.98 µM (inactive) | 1.98 µM (inactive) | 3.83 µM (inactive) | 0.971 µM (active) | 2.52 µM (inactive) | 11.2 µM (inactive) | 3.56 µM (inactive) | 1.02 µM (active) | 2.42 µM (inactive) | 2.16 µM (inactive)
COC(=O)C(Cc1c[nH]c2ccccc12)NC(=O)c1ccc(-c2ccc(Cl)cc2Cl)o1 (stereo unspecified) | 17.6 µM (inactive) | 17.5 µM (inactive) | 41.1 µM (inactive) | 64 µM (inactive) | 15.5 µM (inactive) | 16 µM (inactive) | 16.9 µM (inactive) | 22.3 µM (inactive) |  | > 100 µM (inactive) | 27.5 µM (inactive) | 15.7 µM (inactive) | 45.4 µM (inactive) | 56 µM (inactive) | 36.4 µM (inactive) | 43.9 µM (inactive) | 65.6 µM (inactive) | 26.1 µM (inactive) | 26 µM (inactive) | > 100 µM (inactive)
CN1CC[C@]23c4c5ccc(O)c4OC2c2[nH]ncc2C[C@H]3[C@H]1C5 (stereo partly specified) | > 100 µM (inactive) | > 100 µM (inactive) |  | > 100 µM (inactive) | > 100 µM (inactive) | > 100 µM (inactive) | > 100 µM (inactive) | > 100 µM (inactive) | > 100 µM (inactive) | > 100 µM (inactive) | > 100 µM (inactive) | > 100 µM (inactive) | > 100 µM (inactive) | > 100 µM (inactive) | > 100 µM (inactive) | > 100 µM (inactive) | > 100 µM (inactive) | > 100 µM (inactive) | > 100 µM (inactive) | > 100 µM (inactive)
COC1OC(Cn2c(C)nc(Br)c2Br)C(O)C(O)C1O (stereo unspecified) | > 100 µM (inactive) | > 100 µM (inactive) | > 100 µM (inactive) | > 100 µM (inactive) | > 100 µM (inactive) | > 100 µM (inactive) | > 100 µM (inactive) | > 100 µM (inactive) | > 100 µM (inactive) |  | > 100 µM (inactive) | > 100 µM (inactive) | > 100 µM (inactive) | > 100 µM (inactive) | > 100 µM (inactive) | > 100 µM (inactive) | > 100 µM (inactive) | > 10 µM (inactive) | > 100 µM (inactive) | > 100 µM (inactive)
CCCOC(=O)c1cc(O)c(O)c(O)c1 [PROPYL GALLATE] | 5.83 µM (inactive) | 60.4 µM (inactive) | 51.3 µM (inactive) | 20.8 µM (inactive) | 58.1 µM (inactive) | > 100 µM (inactive) | > 100 µM (inactive) | 20.8 µM (inactive) | 59.3 µM (inactive) | 27.7 µM (inactive) | 62.1 µM (inactive) | 32.2 µM (inactive) | 8.95 µM (inactive) | 19.3 µM (inactive) | 25.7 µM (inactive) | > 100 µM (inactive) | 43.8 µM (inactive) | > 100 µM (inactive) | > 100 µM (inactive) | 74.6 µM (inactive)
N#C/C(=C1C=C(Br)/C(=N\O)C=C\1Cl)c1cccc2ccccc12 | 3.75 µM (inactive) | 8.57 µM (inactive) | 3.53 µM (inactive) | 2.77 µM (inactive) | 4.32 µM (inactive) | 5.77 µM (inactive) | 6.62 µM (inactive) | 4 µM (inactive) | 3.42 µM (inactive) | 4.47 µM (inactive) | 2.38 µM (inactive) | 2.26 µM (inactive) | 11 µM (inactive) | 2.62 µM (inactive) | 2.76 µM (inactive) | 2.29 µM (inactive) | 6.3 µM (inactive) | 3.11 µM (inactive) | 3.51 µM (inactive) | 6.37 µM (inactive)
O=C1c2ccccc2-[n+]2ccc3c([nH]c4ccccc43)c21 [FASCAPLYSIN CHLORIDE] | 0.285 µM (active) | 1.66 µM (inactive) | 0.296 µM (active) | 0.159 µM (active) | 0.22 µM (active) | 0.186 µM (active) | 0.327 µM (active) | 0.195 µM (active) | 0.14 µM (active) | 0.247 µM (active) | 0.755 µM (active) | 0.37 µM (active) | 0.682 µM (active) | 0.179 µM (active) | 0.145 µM (active) | 0.21 µM (active) | 0.34 µM (active) | 0.132 µM (active) | 0.925 µM (active) | 0.0586 µM (active)
CC1C[C@]2(C)C(=O)Nc3ccccc3[C@@H]2Nc2ccccc21 (stereo partly specified) | 17.4 µM (inactive) | 1.95 µM (inactive) | 34.6 µM (inactive) | 26.1 µM (inactive) | 16.3 µM (inactive) | 23.5 µM (inactive) | 15.6 µM (inactive) | 16.1 µM (inactive) | 16.5 µM (inactive) | 23.7 µM (inactive) | 42.5 µM (inactive) | 14.7 µM (inactive) | 50 µM (inactive) | 24 µM (inactive) | 17.8 µM (inactive) | 18.1 µM (inactive) | 28.6 µM (inactive) | 16.2 µM (inactive) | 32.9 µM (inactive) | 23.3 µM (inactive)
CCCCCCCCCC(=O)N[C@@H](c1ccco1)[C@@H](O)C(=O)O[C@H]1C[C@@]2(O)[C@@H](OC(=O)c3ccccc3)[C@@H]3[C@]4(OC(C)=O)CO[C@@H]4C[C@H](O)[C@@]3(C)C(=O)[C@H](OC(C)=O)C(=C1C)C2(C)C | 0.0124 µM (active) | 0.0296 µM (active) | 0.0243 µM (active) | 0.0308 µM (active) | 0.101 µM (active) | < 0.005 µM (active) | 0.0374 µM (active) | 0.00539 µM (active) | 0.0154 µM (active) | 0.158 µM (active) | 0.178 µM (active) | 0.00598 µM (active) | 1.66 µM (inactive) | < 0.005 µM (active) | 0.00914 µM (active) | < 0.005 µM (active) | 0.0498 µM (active) | 0.0101 µM (active) | 0.0187 µM (active) | 0.0269 µM (active)
CN(/N=C\c1ccc2ccccc2c1)C1=NCCN1 | 14.7 µM (inactive) | 0.0817 µM (active) | 19.1 µM (inactive) |  | 16.4 µM (inactive) | 17.3 µM (inactive) | 14.8 µM (inactive) | 15.8 µM (inactive) | 14.3 µM (inactive) | 27.5 µM (inactive) | 26.2 µM (inactive) | 13.3 µM (inactive) | 13.2 µM (inactive) | 15.6 µM (inactive) | 31.9 µM (inactive) | 15.3 µM (inactive) | 13.6 µM (inactive) | 17.3 µM (inactive) | 18.1 µM (inactive) | 15.6 µM (inactive)
O=C1c2cccc3cccc(c23)C(=O)N1CCCNCCCNCCCCNCCCNCCCN1C(=O)c2cccc3cccc(c23)C1=O | 0.376 µM (active) | 5.05 µM (inactive) | 2.03 µM (inactive) | 4.06 µM (inactive) | 3.78 µM (inactive) | 1.33 µM (inactive) | 6.7 µM (inactive) | 1.67 µM (inactive) | 5.93 µM (inactive) | 1.93 µM (inactive) | 5.26 µM (inactive) | 1.39 µM (inactive) | 13.1 µM (inactive) | 2.73 µM (inactive) | 4.67 µM (inactive) | 1.14 µM (inactive) | 2.46 µM (inactive) | 0.929 µM (active) | 3.25 µM (inactive) | 2.6 µM (inactive)
COC(=O)CCN(CCC(=O)OC)C1CC1 | > 100 µM (inactive) | 28.3 µM (inactive) | > 100 µM (inactive) | > 100 µM (inactive) | > 100 µM (inactive) | > 100 µM (inactive) | > 100 µM (inactive) | > 100 µM (inactive) | > 100 µM (inactive) | > 100 µM (inactive) | > 100 µM (inactive) | > 100 µM (inactive) | 76.7 µM (inactive) | > 100 µM (inactive) |  | > 100 µM (inactive) | > 100 µM (inactive) | > 100 µM (inactive) | > 100 µM (inactive) | > 100 µM (inactive)
c1ccc(-c2nc(-c3ccccc3SSc3ccccc3-c3nc(-c4ccccc4)nn3-c3ccccc3)n(-c3ccccc3)n2)cc1 | > 100 µM (inactive) | > 100 µM (inactive) | > 100 µM (inactive) | > 100 µM (inactive) | > 100 µM (inactive) | > 100 µM (inactive) |  | > 100 µM (inactive) |  | > 100 µM (inactive) | > 100 µM (inactive) |  | > 100 µM (inactive) | > 100 µM (inactive) | > 100 µM (inactive) | > 100 µM (inactive) | > 100 µM (inactive) | > 100 µM (inactive) | > 100 µM (inactive) | > 100 µM (inactive)
Nc1ccc2nc3c(nc2c1)C(=O)c1ccccc1-3 | 20.3 µM (inactive) | > 100 µM (inactive) | > 100 µM (inactive) | > 100 µM (inactive) | > 100 µM (inactive) | > 100 µM (inactive) | > 100 µM (inactive) | > 100 µM (inactive) | > 100 µM (inactive) | > 100 µM (inactive) | > 100 µM (inactive) | > 100 µM (inactive) |  | > 100 µM (inactive) | > 100 µM (inactive) | > 100 µM (inactive) | > 100 µM (inactive) | > 10 µM (inactive) | > 100 µM (inactive) | > 100 µM (inactive)

Source: ChEMBL document CHEMBL1201862, “PubChem BioAssay data set” (2004)
